This note sets out measurements from patent publication US20250388553A1 (Incyte Corporation, priority 2018, published 2025).

pIC50: −log10 of the molar value. Counter-ions that a name gives are not always drawn. Like-named read-outs stand apart in the source and are kept apart here.

Test [1] concerns the target PI3Kγ (p110γ) Recombinant Human Protein (Homo sapiens (Human), UniProt P48736). The experiment in a line: PI3K-γ scintillation proximity assay. The test is classed as biochemical. The source says: Example B. PI3K-γ Scintillation Proximity Assay
Materials: [γ-^33P]ATP (10 mCi/mL) and Wheat Germ Agglutinin (WGA) YSi SPA Scintillation Beads was purchased from Perkin Elmer (Waltham, MA). Lipid kinase substrate, D-myo-Phosphatidylinositol 4,5-bisphosphate (PtdIns(4,5)P2)D (+)-sn-1,2-di-O-octanoylglyceryl, 3-O-phospho linked (PIP2), CAS 204858-53-7, was purchased from Echelon Biosciences (Salt Lake City, UT). PI3Kγ (p110γ) Recombinant Human Protein was purchased from Life technology (Grand Island, NY). ATP, MgCl2, DTT, EDTA, MOPS and CHAPS were purchased from Sigma Aldrich (St. Louis, MO).
(§1) The kinase reaction was conducted in polystyrene 384-well Greiner Bio-one white plate from Thermo Fisher Scientific in a final volume of 25 L. Inhibitors were first diluted serially in DMSO and added to the plate wells before the addition of other reaction components. The final concentration of DMSO in the assay was 2%. The PI3Kγ assay was carried out at room temperature in 20 mM MOPS, pH 6.7, 10 mM MgCl2, 5 mM DTT and CHAPS 0.03%. Reactions were initiated by the addition of ATP, the final reaction mixture consisted of 20 µM […], 0.5 μCi [γ-^33P]ATP, 13 nM PI3Kγ. Reactions were incubated for 120 min and terminated by the addition of 40 μL SPA beads suspended in quench buffer: 163 mM potassium phosphate pH 7.8, 20% glycerol, 25 mM EDTA. The final concentration of SPA beads is 1.0 mg/mL. After the plate sealing, plates were shaken overnight at room temperature and centrifuged at 1500 rpm for 10 min, the radioactivity of the product was determined by scintillation counting on Topcount (Perkin-Elmer). IC50 determination was performed by fitting the curve of percent of the solvent control activity versus the log of the inhibitor concentration using the GraphPad Prism 6.0 software.
(§2) The compounds of the Examples were tested in the assays described in Examples A, B and C and found to have the IC50s are shown in Tables A1, A2, A3 and A4.
(In general: SPA uses beads or plates that emit light when radiolabelled molecules are held near them.)

Test [2] deals with PI3Kδ (p1106/p85a) Recombinant Human Protein (Homo sapiens (Human), UniProt O00329). As to the kind of experiment: PI3Kδ scintillation proximity assay. The test is classed as biochemical.
Description: Example C. PI3Kδ Scintillation Proximity Assay
Materials: [γ-^33P]ATP (10 mCi/mL) and Wheat Germ Agglutinin (WGA) YSi SPA Scintillation Beads was purchased from Perkin Elmer (Waltham, MA). Lipid kinase substrate, D-myo-Phosphatidylinositol 4,5-bisphosphate (PtdIns(4,5)P2)D (+)-sn-1,2-di-O-octanoylglyceryl, 3-O-phospho linked (PIP2), CAS 204858-53-7, was purchased from Echelon Biosciences (Salt Lake City, UT). PI3Kδ (p1106/p85a) Recombinant Human Protein was purchased from Eurofins (St Charles, MO). ATP, MgCl2, DTT, EDTA, MOPS and CHAPS were purchased from Sigma Aldrich (St. Louis, MO).
as §1, with “25 μL.” for “25 L.”, “The PI3Kδ” for “The PI3Kγ”, “[γ-^33P]ATP, 3.4” for “[γ-^33P]ATP, 13”, “nM PI3Kδ.” for “nM PI3Kγ.”, “Topcount (PerkinElmer).” for “Topcount (Perkin-Elmer).”
as §2

Setting [3] is: Table A1, scintillation proximity assay, recombinant human p110γ.
Where [4] appears, read: Table A1, scintillation proximity assay, recombinant human PI3Kδ.
Where [5] appears, read: Table A4, scintillation proximity assay, recombinant human p110γ.
Where [6] appears, read: Table A4, scintillation proximity assay, recombinant human PI3Kδ.
Where [7] appears, read: Table A3, scintillation proximity assay, recombinant human p110γ.
[8] abbreviates: Table A3, scintillation proximity assay, recombinant human PI3Kδ.
Setting [9] is: Table A2, scintillation proximity assay, recombinant human p110γ.
Setting [10] is: Table A2, scintillation proximity assay, recombinant human PI3Kδ.

PI3Kγ (p110γ) Recombinant Human Protein, sequence (P48736 whole entry): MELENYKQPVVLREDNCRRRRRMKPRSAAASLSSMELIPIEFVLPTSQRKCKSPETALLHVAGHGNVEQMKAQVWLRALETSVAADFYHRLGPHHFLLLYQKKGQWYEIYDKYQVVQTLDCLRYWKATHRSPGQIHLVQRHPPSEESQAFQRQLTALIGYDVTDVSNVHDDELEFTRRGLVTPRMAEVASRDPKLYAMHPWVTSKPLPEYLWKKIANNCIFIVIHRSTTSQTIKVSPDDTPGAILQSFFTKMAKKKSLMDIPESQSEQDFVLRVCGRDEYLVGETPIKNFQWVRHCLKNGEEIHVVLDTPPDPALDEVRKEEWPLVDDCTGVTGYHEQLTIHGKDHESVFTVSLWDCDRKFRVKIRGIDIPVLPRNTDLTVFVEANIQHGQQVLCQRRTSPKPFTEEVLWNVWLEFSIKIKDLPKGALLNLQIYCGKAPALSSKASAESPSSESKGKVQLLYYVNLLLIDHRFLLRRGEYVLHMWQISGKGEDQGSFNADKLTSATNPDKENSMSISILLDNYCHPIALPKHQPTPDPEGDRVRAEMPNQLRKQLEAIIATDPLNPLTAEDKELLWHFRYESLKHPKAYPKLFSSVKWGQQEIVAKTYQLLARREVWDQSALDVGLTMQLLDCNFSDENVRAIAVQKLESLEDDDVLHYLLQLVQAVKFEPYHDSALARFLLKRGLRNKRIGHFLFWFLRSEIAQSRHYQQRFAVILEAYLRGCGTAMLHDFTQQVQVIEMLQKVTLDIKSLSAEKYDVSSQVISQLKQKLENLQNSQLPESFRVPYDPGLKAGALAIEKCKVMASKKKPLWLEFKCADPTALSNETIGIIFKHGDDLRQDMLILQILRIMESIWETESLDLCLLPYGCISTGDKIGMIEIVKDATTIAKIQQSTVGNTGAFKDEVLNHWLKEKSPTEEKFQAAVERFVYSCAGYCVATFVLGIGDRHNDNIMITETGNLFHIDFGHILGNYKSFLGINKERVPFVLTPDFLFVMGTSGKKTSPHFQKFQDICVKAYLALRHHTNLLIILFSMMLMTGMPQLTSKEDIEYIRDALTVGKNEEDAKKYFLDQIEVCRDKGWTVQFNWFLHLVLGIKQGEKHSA
PI3Kδ (p1106/p85a) Recombinant Human Protein, sequence (O00329 whole entry): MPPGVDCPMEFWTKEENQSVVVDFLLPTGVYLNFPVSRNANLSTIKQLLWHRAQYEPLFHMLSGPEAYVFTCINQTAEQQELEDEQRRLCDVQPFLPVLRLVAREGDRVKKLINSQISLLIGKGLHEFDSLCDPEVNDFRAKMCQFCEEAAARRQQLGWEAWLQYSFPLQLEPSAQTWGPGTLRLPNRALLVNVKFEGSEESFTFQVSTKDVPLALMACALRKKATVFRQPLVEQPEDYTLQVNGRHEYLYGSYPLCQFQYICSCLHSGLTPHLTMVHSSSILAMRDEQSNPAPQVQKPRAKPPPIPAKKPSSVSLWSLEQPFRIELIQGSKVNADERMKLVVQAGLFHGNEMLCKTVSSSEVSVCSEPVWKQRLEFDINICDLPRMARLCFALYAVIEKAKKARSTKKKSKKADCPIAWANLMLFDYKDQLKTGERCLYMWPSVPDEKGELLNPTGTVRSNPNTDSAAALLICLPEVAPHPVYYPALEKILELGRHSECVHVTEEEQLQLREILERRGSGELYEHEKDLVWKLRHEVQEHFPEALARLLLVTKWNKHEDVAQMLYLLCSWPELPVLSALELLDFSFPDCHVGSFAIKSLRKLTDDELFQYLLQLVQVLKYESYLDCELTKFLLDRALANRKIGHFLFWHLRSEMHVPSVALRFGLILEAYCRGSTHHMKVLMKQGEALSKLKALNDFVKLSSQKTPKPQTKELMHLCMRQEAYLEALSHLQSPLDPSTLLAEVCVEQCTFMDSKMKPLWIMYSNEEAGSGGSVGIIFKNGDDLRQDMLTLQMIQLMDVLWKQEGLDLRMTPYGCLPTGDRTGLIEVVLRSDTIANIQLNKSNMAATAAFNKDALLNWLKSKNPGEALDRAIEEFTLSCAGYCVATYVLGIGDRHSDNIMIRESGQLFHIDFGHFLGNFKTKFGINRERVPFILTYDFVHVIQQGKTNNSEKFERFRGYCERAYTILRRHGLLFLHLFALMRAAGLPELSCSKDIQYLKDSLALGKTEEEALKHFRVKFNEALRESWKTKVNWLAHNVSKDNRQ
PI3Kδ (p1106/p85a) Recombinant Human Protein, sequence (P27986 whole entry partner): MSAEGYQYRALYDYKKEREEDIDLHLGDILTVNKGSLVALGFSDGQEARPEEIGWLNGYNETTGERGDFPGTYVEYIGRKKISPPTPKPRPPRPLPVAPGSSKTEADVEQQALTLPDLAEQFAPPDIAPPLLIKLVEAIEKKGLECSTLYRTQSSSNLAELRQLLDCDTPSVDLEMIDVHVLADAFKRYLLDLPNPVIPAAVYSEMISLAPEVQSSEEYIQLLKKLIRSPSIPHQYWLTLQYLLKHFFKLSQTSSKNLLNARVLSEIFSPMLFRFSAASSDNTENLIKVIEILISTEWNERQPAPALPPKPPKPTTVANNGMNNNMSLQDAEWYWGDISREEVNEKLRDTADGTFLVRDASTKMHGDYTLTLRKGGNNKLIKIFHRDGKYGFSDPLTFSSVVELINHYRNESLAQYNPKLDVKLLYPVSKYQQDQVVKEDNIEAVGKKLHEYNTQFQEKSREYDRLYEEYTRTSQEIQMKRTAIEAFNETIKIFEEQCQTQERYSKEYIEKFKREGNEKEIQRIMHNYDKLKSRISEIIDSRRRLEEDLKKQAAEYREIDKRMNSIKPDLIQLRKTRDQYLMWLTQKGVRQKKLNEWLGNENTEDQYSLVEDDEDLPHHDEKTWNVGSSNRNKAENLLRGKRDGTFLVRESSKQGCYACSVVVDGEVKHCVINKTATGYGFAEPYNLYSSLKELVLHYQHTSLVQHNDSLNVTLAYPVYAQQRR

What is called pIC50 is −log10 of the IC50, conventionally taken in molar units. Take `Cc1ccc(C(O)(C(N)=O)C(F)(F)F)cc1-c1cnc(N)c(N2CCN(C(=O)c3ccco3)CC2)n1` (stereo not drawn) [Example 127, 2-(3-(5-amino-6-(4-(furan-2-carbonyl)piperazin-1-yl)pyrazin-2-yl)-4-methylphenyl)-3,3,3-trifluoro-2-hydroxypropanamide trifluoroacetate]: the pIC50 in test [1] and in test [2] was greater than 7.00 throughout.
For the compound `Cc1ccc(C(O)(C(N)=O)C(F)(F)F)cc1-c1cnc(N)c(C(=O)N[C@@H](C)CO)n1` (stereo partly drawn) [Example 12, 3-amino-6-(5-(3-amino-1,1,1-trifluoro-2-hydroxy-3-oxopropan-2-yl)-2-methylphenyl)-N-((S)-1-hydroxypropan-2-yl)pyrazine-2-carboxamide], the pIC50 in test [1] (setting [3]) and in test [2] (setting [4]) was greater than 7.00 throughout.
In the case of `Cc1ccc([C@@](O)(C(N)=O)C(F)(F)F)cc1-c1cnc(N)c(N2CCN(C(=O)C3CC3)CC2)n1` [Example 115, (R)-2-(3-(5-amino-6-(4-(cyclopropanecarbonyl)piperazin-1-yl)pyrazin-2-yl)-4-methylphenyl)-3,3,3-trifluoro-2-hydroxypropanamide trifluoroacetate], the pIC50 in test [1] (setting [5]) and in test [2] (setting [6]) was greater than 7.00 each time.
For `CCNC(=O)c1nc(-c2cc(C(O)(C(N)=O)C(F)F)ccc2C)cnc1N` (stereo not drawn) [Example 32, 3-amino-6-(5-(1-amino-3,3-difluoro-2-hydroxy-1-oxopropan-2-yl)-2-methylphenyl)-N-ethylpyrazine-2-carboxamide], the negative-log IC50 (pIC50) in test [1] (setting [3]) and in test [2] (setting [4]) was greater than 7.00 in each case.
Regarding `CC(=O)NCC(O)(c1ccc(C)c(-c2cnc(N)c(-c3cnn(CC(F)(F)F)c3)n2)c1)C(F)(F)F` (stereo not drawn) [Example 104, N-(2-(3-(5-amino-6-(1-(2,2,2-trifluoroethyl)-1H-pyrazol-4-yl)pyrazin-2-yl)-4-methylphenyl)-3,3,3-trifluoro-2-hydroxypropyl)acetamide trifluoroacetate], the negative-log IC50 (pIC50) in test [1] (setting [7]) and in test [2] (setting [8]) was greater than 7.00 each time.
Regarding `Cc1ccc(C(O)(CNC=O)C(F)(F)F)cc1-c1cnc(N)c(-c2cnc(C3CC3)s2)n1` (stereo not drawn) [Example 102, N-(2-(3-(5-amino-6-(2-cyclopropylthiazol-5-yl)pyrazin-2-yl)-4-methylphenyl)-3,3,3-trifluoro-2-hydroxypropyl)formamide trifluoroacetate], the pIC50 in test [1] (setting [7]) and in test [2] (setting [8]) was greater than 7.00 in each case.
With `Cc1ccc(C(O)(C(N)=O)C(F)(F)F)cc1-c1cnc(N)c(C(F)(F)F)n1` (stereo not drawn) [Example 46, 2-(3-(5-Amino-6-(trifluoromethyl)pyrazin-2-yl)-4-methylphenyl)-3,3,3-trifluoro-2-hydroxypropanamide trifluoroacetate], the pIC50 in test [1] (setting [9]) was greater than 7.00; in test [2] (setting [10]), 6.30 to 7.00.
Taken in the same sequence, the figures for `Cc1ccc(C(O)(C(N)=O)C(F)(F)F)cc1-c1cnc(N)c(C#CC2CC2)n1` (stereo not drawn) [Example 48, 2-(3-(5-amino-6-(cyclopropylethynyl)pyrazin-2-yl)-4-methylphenyl)-3,3,3-trifluoro-2-hydroxypropanamide] were greater than 7.00 and greater than 7.00.
On to `C/C=C\c1nc(-c2cc(C(O)(C(N)=O)C(F)(F)F)ccc2C)cnc1N` (stereo not drawn) [Example 44, (Z)-2-(3-(5-amino-6-(prop-1-en-1-yl)pyrazin-2-yl)-4-methylphenyl)-3,3,3-trifluoro-2-hydroxypropanamide], for which the pIC50 in test [1] (setting [9]) is greater than 7.00; in test [2] (setting [10]) it was 6.30 to 7.00.
Regarding `Cc1ccc(C(O)(C(N)=O)C(F)(F)F)cc1-c1cnc(N)c(C(=O)NCC(C)(C)O)n1` (stereo not drawn) [Example 1, 3-Amino-6-(5-(3-amino-1,1,1-trifluoro-2-hydroxy-3-oxopropan-2-yl)-2-methylphenyl)-N-(2-hydroxy-2-methylpropyl)pyrazine-2-carboxamide], the negative-log IC50 (pIC50) in test [1] (setting [3]) and in test [2] (setting [4]) was greater than 7.00 each time.
For the compound `Cc1ncc(-c2nc(-c3cc(C(O)(C(N)=O)C(F)F)ccc3C)cnc2N)o1` (stereo not drawn) [Example 100, 2-(3-(5-amino-6-(2-methyloxazol-5-yl)pyrazin-2-yl)-4-methylphenyl)-3,3-difluoro-2-hydroxypropanamide], the negative-log IC50 (pIC50) in test [1] (setting [7]) and in test [2] (setting [8]) was greater than 7.00 each time.
For the compound `Cc1ccc(C(O)(C(N)=O)C(F)(F)F)cc1-c1cnc(N)c(C(=O)NC23CCC(C#N)(CC2)CC3)n1` (stereo not drawn) [Example 25, 3-amino-6-(5-(3-amino-1,1,1-trifluoro-2-hydroxy-3-oxopropan-2-yl)-2-methylphenyl)-N-(4-cyanobicyclo[2.2.2]octan-1-yl)pyrazine-2-carboxamide trifluoroacetate], the pIC50 in test [1] (setting [3]) and in test [2] (setting [4]) was greater than 7.00 throughout.
Consider `Cc1ccc(C(O)(C(N)=O)C(F)(F)F)cc1-c1cnc(N)c(C(=O)NC(C)C)n1` (stereo not drawn) [Example 5, 3-Amino-6-(5-(3-amino-1,1,1-trifluoro-2-hydroxy-3-oxopropan-2-yl)-2-methylphenyl)-N-isopropylpyrazine-2-carboxamide trifluoroacetate], for which the negative-log IC50 (pIC50) in test [1] (setting [3]) and in test [2] (setting [4]) was greater than 7.00 each time.
As to `Cc1ccc(C(O)(C(N)=O)C(F)(F)F)cc1-c1cnc(N)c(C(=O)NCC2(C#N)CC2)n1` (stereo not drawn) [Example 4, 3-amino-6-(5-(3-amino-1,1,1-trifluoro-2-hydroxy-3-oxopropan-2-yl)-2-methylphenyl)-N-((1-cyanocyclopropyl)methyl)pyrazine-2-carboxamide trifluoroacetate], the negative-log IC50 (pIC50) in test [1] (setting [3]) and in test [2] (setting [4]) was greater than 7.00 each time.
Regarding `Cc1ccc(C(O)(C(N)=O)C(F)(F)F)cc1-c1cnc(N)c(N2CCN(c3nccnc3C#N)CC2)n1` (stereo not drawn) [Example 128, 2-(3-(5-amino-6-(4-(3-cyanopyrazin-2-yl)piperazin-1-yl)pyrazin-2-yl)-4-methylphenyl)-3,3,3-trifluoro-2-hydroxypropanamide trifluoroacetate], the pIC50 in test [1] (setting [5]) and in test [2] (setting [6]) was greater than 7.00 each time.
Consider `Cc1ccc(C(O)(C(N)=O)C(F)(F)F)cc1-c1cnc(N)c(C#CC2(O)CCN(C)C2=O)n1` (stereo not drawn) [Example 65, 2-(3-(5-amino-6-((3-hydroxy-1-methyl-2-oxopyrrolidin-3-yl)ethynyl)pyrazin-2-yl)-4-methylphenyl)-3,3,3-trifluoro-2-], for which the negative logarithm of the IC50 (pIC50) in test [1] (setting [9]) and in test [2] (setting [10]) was greater than 7.00 each time.
Consider `CC[C@@H](CC#N)NC(=O)c1nc(-c2cc(C(O)(C(N)=O)C(F)(F)F)ccc2C)cnc1N` (stereo partly drawn) [Example 20, 3-amino-6-(5-(3-amino-1,1,1-trifluoro-2-hydroxy-3-oxopropan-2-yl)-2-methylphenyl)-N-((S)-1-cyanobutan-2-yl)pyrazine-2-carboxamide trifluoroacetate], for which the pIC50 in test [1] (setting [3]) and in test [2] (setting [4]) was greater than 7.00 throughout.
As for `Cc1ccc(C(O)(C(N)=O)C(F)F)cc1-c1cnc(N)c(C(=O)NCCC2CCOC2)n1` (stereo not drawn) [Example 37, 3-amino-6-(5-(1-amino-3,3-difluoro-2-hydroxy-1-oxopropan-2-yl)-2-methylphenyl)-N-(2-(tetrahydrofuran-3-yl)ethyl)pyrazine-2-carboxamide], the negative-log IC50 (pIC50) in test [1] (setting [3]) and in test [2] (setting [4]) was greater than 7.00 throughout.
